Values belong to the compound of their own block, whether it stands above or below them.
How the values were obtained:
Assay in all cases: Off-Target Kinase Profiling
Assay type in all cases: biochemical
Conditions in all cases: 10 μM; ATP near Km
ALK4 = biological target: T1, ALK4 (Homo sapiens, UniProt P36896)
T1 construct: purchased Millipore (KinaseProfiler service)
Experimental: (§1) Representative compounds of the invention (Examples 33 and 10) were tested for off-target kinase activity at a concentration of 10 μM by Millipore, Inc. in their KinaseProfiler™ service against all the kinases available in their full kinase panel. Compounds were run in duplicate at a concentration of ATP near the Km for each individual kinase according to Millipore's specifications. The results are shown in Table B. Data are reported as percent of control (POC) and are the average of the two replicates.

BLK_m = biological target: T2, BLK_m (Mus musculus, UniProt P16277)
T2 construct: purchased Millipore (KinaseProfiler service)
Experimental: as §1

CAMK1 = biological target: T3, CAMK1 (Homo sapiens, UniProt Q14012)
T3 construct: purchased Millipore (KinaseProfiler service)
Experimental: as §1

CAMK2d = biological target: T4, CAMK2d (Homo sapiens, UniProt Q13557)
T4 construct: purchased Millipore (KinaseProfiler service)
Experimental: as §1

CK1gamma2 = biological target: T5, CK1gamma2 (Homo sapiens, UniProt P78368)
T5 construct: purchased Millipore, Inc. (KinaseProfiler service)
Experimental: as §1

CK1gamma3 = biological target: T6, CK1gamma3 (Homo sapiens, UniProt Q9Y6M4)
T6 construct: purchased Millipore, Inc. (KinaseProfiler service)
Experimental: as §1

DAPK2 = biological target: T7, DAPK2 (Homo sapiens, UniProt Q9UIK4)
T7 construct: purchased Millipore, Inc. (KinaseProfiler service)
Experimental: as §1

EphB4 = biological target: T8, EphB4 (Homo sapiens, UniProt P54760)
T8 construct: purchased Millipore, Inc. (KinaseProfiler service)
Experimental: as §1

ErbB4 = biological target: T9, ErbB4 (Homo sapiens, UniProt Q15303)
T9 construct: purchased Millipore, Inc. (KinaseProfiler service)
Experimental: as §1

Fer = biological target: T10, Fer (Homo sapiens, UniProt P16591)
T10 construct: purchased Millipore, Inc. (KinaseProfiler service)
Experimental: as §1

HIPK2 = biological target: T11, HIPK2 (Homo sapiens, UniProt Q9H2X6)
T11 construct: purchased Millipore, Inc. (KinaseProfiler service)
Experimental: as §1

HIPK3 = biological target: T12, HIPK3 (Homo sapiens, UniProt Q9H422)
T12 construct: purchased Millipore, Inc. (KinaseProfiler service)
Experimental: as §1

Haspin = biological target: T13, Haspin (Homo sapiens, UniProt Q8TF76)
T13 construct: purchased Millipore, Inc. (KinaseProfiler service)
Experimental: as §1

IRR = biological target: T14, IRR (Homo sapiens, UniProt P14616)
T14 construct: purchased Millipore, Inc. (KinaseProfiler service)
Experimental: as §1

JAK2 = biological target: T15, JAK2 (Homo sapiens, UniProt O60674)
T15 construct: purchased Millipore, Inc. (KinaseProfiler service)
Experimental: as §1

LOK = biological target: T16, LOK (Homo sapiens, UniProt O94804)
T16 construct: purchased Millipore, Inc. (KinaseProfiler service)
Experimental: as §1

Lck = biological target: T17, Lck (Homo sapiens, UniProt P06239)
T17 construct: purchased Millipore, Inc. (KinaseProfiler service)
Experimental: as §1

MAPKAP-K2 = biological target: T18, MAPKAP-K2 (Homo sapiens, UniProt P49137)
T18 construct: purchased Millipore, Inc. (KinaseProfiler service)
Experimental: as §1

MEK1 = biological target: T19, MEK1 (Homo sapiens, UniProt Q02750)
T19 construct: purchased Millipore, Inc. (KinaseProfiler service)
Experimental: as §1

MKK6 = biological target: T20, MKK6 (Homo sapiens, UniProt P52564)
T20 construct: purchased Millipore, Inc. (KinaseProfiler service)
Experimental: as §1

MRCKalpha = biological target: T21, MRCKalpha (Homo sapiens, UniProt Q5VT25)
T21 construct: purchased Millipore, Inc. (KinaseProfiler service)
Experimental: as §1

MRCKbeta = biological target: T22, MRCKbeta (Homo sapiens, UniProt Q9Y5S2)
T22 construct: purchased Millipore, Inc. (KinaseProfiler service)
Experimental: as §1

MSK2 = biological target: T23, MSK2 (Homo sapiens, UniProt O75676)
T23 construct: purchased Millipore, Inc. (KinaseProfiler service)
Experimental: as §1

MYLK = biological target: T24, MYLK (Homo sapiens, UniProt Q15746)
T24 construct: purchased Millipore, Inc. (KinaseProfiler service)
Experimental: as §1

PKCbetaII = biological target: T25, PKCbetaII (Homo sapiens, UniProt P05771)
T25 construct: purchased Millipore, Inc. (KinaseProfiler service)
Experimental: as §1

PRKG1alpha = biological target: T26, PRKG1alpha (Homo sapiens, UniProt Q13976)
T26 construct: purchased Millipore, Inc. (KinaseProfiler service)
Experimental: as §1

PRKG1beta = biological target: T27, PRKG1beta (Homo sapiens, UniProt Q13976)
T27 construct: purchased Millipore, Inc. (KinaseProfiler service)
Experimental: as §1

Pim-1 = biological target: T28, Pim-1 (Homo sapiens, UniProt P11309)
T28 construct: purchased Millipore, Inc. (KinaseProfiler service)
Experimental: as §1

Pim-2 = biological target: T29, Pim-2 (Homo sapiens, UniProt Q9P1W9)
T29 construct: purchased Millipore, Inc. (KinaseProfiler service)
Experimental: as §1

Plk2 = biological target: T30, Plk2 (Homo sapiens, UniProt Q9NYY3)
T30 construct: purchased Millipore, Inc. (KinaseProfiler service)
Experimental: as §1

ROCK-I = biological target: T31, ROCK-I (Homo sapiens, UniProt Q13464)
T31 construct: purchased Millipore, Inc. (KinaseProfiler service)
Experimental: as §1

Rsk1 = biological target: T32, Rsk1 (Homo sapiens, UniProt Q15418)
T32 construct: purchased Millipore, Inc. (KinaseProfiler service)
Experimental: as §1

Rsk3 = biological target: T33, Rsk3 (Homo sapiens, UniProt Q15349)
T33 construct: purchased Millipore, Inc. (KinaseProfiler service)
Experimental: as §1

SGK2 = biological target: T34, SGK2 (Homo sapiens, UniProt Q9HBY8)
T34 construct: purchased Millipore, Inc. (KinaseProfiler service)
Experimental: as §1

TAO2 = biological target: T35, TAO2 (Homo sapiens, UniProt Q9UL54)
T35 construct: purchased Millipore, Inc. (KinaseProfiler service)
Experimental: as §1

TEC Activated = biological target: T36, TEC Activated (Homo sapiens, UniProt P42680)
T36 construct: purchased Millipore, Inc. (KinaseProfiler service)
Experimental: as §1

Txk = biological target: T37, Txk (Homo sapiens, UniProt P42681)
T37 construct: purchased Millipore, Inc. (KinaseProfiler service)
Experimental: as §1

ULK2 = biological target: T38, ULK2 (Homo sapiens, UniProt Q8IYT8)
T38 construct: purchased Millipore, Inc. (KinaseProfiler service)
Experimental: as §1

p38alpha = biological target: T39, p38alpha (Homo sapiens, UniProt Q16539)
T39 construct: purchased Millipore, Inc. (KinaseProfiler service)
Experimental: as §1

p38delta = biological target: T40, p38delta (Homo sapiens, UniProt O15264)
T40 construct: purchased Millipore, Inc. (KinaseProfiler service)
Experimental: as §1

p70S6K = biological target: T41, p70S6K (Homo sapiens, UniProt P23443)
T41 construct: purchased Millipore, Inc. (KinaseProfiler service)
Experimental: as §1

T36 sequence (P42680 whole entry): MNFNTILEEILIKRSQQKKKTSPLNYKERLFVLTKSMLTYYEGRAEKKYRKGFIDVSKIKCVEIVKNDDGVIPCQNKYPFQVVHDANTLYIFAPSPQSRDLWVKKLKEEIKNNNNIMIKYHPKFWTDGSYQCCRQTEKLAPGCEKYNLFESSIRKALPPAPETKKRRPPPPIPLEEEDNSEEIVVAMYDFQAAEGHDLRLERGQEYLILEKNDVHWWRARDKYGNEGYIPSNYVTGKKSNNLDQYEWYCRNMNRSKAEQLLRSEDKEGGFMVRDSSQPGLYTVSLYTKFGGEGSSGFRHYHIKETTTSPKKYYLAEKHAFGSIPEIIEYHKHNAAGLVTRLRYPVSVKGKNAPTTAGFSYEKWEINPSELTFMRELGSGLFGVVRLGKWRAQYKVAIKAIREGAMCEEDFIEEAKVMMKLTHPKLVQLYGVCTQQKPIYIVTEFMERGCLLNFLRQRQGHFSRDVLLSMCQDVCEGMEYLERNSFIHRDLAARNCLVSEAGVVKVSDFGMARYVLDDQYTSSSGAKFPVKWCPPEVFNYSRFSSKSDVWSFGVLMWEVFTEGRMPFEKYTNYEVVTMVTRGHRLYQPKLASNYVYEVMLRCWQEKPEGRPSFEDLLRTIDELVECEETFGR
T30 sequence (Q9NYY3 whole entry): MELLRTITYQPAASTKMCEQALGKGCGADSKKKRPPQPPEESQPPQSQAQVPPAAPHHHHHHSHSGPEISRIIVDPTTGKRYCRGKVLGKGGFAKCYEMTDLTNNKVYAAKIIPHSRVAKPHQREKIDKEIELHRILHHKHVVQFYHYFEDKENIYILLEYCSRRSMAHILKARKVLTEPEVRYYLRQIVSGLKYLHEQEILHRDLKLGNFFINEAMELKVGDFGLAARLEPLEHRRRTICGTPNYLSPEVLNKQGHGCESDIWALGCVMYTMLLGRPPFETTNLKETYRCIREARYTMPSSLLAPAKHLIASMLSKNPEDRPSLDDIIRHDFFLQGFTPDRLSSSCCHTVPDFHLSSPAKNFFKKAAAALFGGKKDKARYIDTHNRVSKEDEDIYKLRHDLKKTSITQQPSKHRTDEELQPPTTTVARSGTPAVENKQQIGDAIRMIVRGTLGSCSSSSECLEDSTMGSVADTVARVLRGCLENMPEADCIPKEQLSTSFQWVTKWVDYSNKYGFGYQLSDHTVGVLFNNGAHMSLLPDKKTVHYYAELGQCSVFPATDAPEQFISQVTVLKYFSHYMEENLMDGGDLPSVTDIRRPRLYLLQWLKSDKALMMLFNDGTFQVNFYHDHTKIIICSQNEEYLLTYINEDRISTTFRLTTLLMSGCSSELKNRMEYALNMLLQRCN
T38 sequence (Q8IYT8 whole entry): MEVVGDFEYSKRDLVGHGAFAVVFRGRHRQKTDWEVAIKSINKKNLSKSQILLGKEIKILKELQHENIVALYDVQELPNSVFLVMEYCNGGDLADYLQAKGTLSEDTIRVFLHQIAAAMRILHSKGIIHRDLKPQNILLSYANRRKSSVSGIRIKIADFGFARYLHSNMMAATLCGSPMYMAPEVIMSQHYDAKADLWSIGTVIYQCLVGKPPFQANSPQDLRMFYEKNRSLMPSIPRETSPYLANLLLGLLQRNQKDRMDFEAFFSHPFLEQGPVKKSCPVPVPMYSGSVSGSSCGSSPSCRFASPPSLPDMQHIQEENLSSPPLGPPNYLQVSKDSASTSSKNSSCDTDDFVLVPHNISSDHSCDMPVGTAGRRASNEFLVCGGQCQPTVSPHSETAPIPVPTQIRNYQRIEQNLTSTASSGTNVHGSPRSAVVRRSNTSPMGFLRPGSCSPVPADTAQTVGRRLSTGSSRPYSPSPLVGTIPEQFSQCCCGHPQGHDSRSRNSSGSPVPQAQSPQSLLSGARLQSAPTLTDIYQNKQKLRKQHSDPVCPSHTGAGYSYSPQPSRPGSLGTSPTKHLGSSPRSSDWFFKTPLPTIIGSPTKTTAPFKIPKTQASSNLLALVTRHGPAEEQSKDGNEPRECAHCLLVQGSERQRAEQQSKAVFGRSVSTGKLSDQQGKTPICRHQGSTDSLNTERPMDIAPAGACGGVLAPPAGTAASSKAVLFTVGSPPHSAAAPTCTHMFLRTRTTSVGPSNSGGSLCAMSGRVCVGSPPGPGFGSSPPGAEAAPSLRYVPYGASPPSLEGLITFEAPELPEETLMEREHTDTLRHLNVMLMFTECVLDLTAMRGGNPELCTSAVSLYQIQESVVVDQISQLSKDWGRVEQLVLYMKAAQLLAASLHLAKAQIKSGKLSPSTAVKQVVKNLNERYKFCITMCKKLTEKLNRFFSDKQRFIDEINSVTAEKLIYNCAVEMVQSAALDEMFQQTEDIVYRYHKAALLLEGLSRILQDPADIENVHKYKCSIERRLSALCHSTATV
T23 sequence (O75676 whole entry): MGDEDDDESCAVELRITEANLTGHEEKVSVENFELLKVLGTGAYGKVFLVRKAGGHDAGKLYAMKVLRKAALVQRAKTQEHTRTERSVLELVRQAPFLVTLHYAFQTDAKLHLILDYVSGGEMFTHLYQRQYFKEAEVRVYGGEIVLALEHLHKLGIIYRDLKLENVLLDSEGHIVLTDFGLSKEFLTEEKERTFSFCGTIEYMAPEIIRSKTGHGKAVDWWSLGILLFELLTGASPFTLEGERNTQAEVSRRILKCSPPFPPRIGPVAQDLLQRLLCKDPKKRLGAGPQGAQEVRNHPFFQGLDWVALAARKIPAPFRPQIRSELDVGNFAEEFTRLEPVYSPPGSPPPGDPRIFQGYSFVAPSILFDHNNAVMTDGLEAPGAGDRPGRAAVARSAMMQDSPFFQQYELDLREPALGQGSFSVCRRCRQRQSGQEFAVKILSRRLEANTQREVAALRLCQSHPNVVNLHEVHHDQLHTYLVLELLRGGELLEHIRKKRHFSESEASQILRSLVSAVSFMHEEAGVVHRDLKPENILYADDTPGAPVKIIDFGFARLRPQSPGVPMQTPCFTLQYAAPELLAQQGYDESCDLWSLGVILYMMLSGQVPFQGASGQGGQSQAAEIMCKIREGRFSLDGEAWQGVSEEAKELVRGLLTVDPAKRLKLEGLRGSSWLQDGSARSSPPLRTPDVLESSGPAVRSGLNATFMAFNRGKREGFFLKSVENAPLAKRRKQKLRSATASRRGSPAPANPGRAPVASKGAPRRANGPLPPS
T27 sequence (Q13976 1-686 isoform Q13976-2): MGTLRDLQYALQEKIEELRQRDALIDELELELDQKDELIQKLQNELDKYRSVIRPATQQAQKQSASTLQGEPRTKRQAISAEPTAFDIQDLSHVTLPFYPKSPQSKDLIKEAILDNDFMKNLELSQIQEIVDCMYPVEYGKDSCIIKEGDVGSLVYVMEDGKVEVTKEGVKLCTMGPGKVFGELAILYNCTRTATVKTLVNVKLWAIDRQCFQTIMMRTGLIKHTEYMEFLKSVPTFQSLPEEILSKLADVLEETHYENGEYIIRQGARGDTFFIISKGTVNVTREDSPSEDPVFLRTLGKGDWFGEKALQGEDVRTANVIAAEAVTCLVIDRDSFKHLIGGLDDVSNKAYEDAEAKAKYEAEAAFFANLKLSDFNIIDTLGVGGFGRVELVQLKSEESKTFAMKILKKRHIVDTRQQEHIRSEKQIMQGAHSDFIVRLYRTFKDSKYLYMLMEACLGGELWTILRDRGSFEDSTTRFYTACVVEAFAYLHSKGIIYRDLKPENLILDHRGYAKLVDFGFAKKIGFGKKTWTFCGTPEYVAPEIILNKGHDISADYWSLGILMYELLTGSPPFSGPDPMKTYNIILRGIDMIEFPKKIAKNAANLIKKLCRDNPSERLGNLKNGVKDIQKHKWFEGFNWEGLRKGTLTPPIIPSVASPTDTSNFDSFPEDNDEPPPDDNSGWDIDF
T3 sequence (Q14012 whole entry): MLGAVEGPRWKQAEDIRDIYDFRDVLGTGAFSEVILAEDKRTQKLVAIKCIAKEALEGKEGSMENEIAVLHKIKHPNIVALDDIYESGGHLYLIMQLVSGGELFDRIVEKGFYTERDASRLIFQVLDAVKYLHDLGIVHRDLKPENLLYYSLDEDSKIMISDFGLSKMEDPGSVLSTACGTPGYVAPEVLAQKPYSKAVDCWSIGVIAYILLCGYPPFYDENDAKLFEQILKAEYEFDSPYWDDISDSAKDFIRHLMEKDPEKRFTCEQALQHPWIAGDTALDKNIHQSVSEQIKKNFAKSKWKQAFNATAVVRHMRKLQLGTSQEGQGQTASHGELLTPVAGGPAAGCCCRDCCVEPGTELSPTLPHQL
T33 sequence (Q15349 whole entry): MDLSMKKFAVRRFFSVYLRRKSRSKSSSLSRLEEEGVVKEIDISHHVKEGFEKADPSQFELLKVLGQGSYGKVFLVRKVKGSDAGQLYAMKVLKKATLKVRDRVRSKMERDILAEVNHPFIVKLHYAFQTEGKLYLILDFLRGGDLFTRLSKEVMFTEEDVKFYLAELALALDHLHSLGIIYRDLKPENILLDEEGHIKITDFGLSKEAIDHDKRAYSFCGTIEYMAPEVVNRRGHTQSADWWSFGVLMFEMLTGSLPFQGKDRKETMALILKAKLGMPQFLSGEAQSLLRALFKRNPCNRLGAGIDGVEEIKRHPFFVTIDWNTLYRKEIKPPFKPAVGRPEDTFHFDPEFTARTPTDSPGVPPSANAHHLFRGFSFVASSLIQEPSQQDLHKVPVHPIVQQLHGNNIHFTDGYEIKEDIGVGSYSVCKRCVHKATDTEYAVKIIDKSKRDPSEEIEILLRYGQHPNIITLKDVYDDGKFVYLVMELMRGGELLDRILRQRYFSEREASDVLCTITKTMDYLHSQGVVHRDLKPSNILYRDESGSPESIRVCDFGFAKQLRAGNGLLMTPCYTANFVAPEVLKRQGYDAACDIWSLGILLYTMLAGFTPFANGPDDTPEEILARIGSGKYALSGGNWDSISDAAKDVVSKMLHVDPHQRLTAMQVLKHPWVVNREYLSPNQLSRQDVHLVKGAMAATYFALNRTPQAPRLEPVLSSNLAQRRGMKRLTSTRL

Avg POC ALK4 (ALK4): 111.5 POC | Avg POC BLK_m (BLK_m): 97.5 POC | Avg POC CAMK1 (CAMK1): 92 POC | Avg POC CAMK2d (CAMK2d): 126.5 POC | Avg POC CK1gamma2 (CK1gamma2): 69.5 POC | Avg POC CK1gamma3 (CK1gamma3): 39 POC | Avg POC DAPK2 (DAPK2): 105 POC | Avg POC EphB4 (EphB4): 140.5 POC | Avg POC ErbB4 (ErbB4): 108.5 POC | Avg POC Fer (Fer): 96.5 POC | Avg POC HIPK2 (HIPK2): 102.5 POC | Avg POC HIPK3 (HIPK3): 95.5 POC | Avg POC Haspin (Haspin): 80.5 POC | Avg POC IRR (IRR): 96 POC | Avg POC JAK2 (JAK2): 106.5 POC | Avg POC LOK (LOK): 101 POC | Avg POC Lck (Lck): 75.5 POC | Avg POC MAPKAP-K2 (MAPKAP-K2): 106 POC | Avg POC MEK1 (MEK1): 121 POC | Avg POC MKK6 (MKK6): 131.5 POC | Avg POC MRCKalpha (MRCKalpha): 122 POC | Avg POC MRCKbeta (MRCKbeta): 108.5 POC | Avg POC MSK2 (MSK2): 110.5 POC | Avg POC MYLK (MYLK): 88 POC | Avg POC PKCbetaII (PKCbetaII): 94 POC | Avg POC PRKG1alpha (PRKG1alpha): 113 POC | Avg POC PRKG1beta (PRKG1beta): 107.5 POC | Avg POC Pim-1 (Pim-1): 101.5 POC | Avg POC Pim-2 (Pim-2): 118 POC | Avg POC Plk2 (Plk2): 101 POC | Avg POC ROCK-I (ROCK-I): 114 POC | Avg POC Rsk1 (Rsk1): 96.5 POC | Avg POC Rsk3 (Rsk3): 101 POC | Avg POC SGK2 (SGK2): 80.5 POC | Avg POC TAO2 (TAO2): 97.5 POC | Avg POC TEC Activated (TEC Activated): 88.5 POC | Avg POC Txk (Txk): 104.5 POC | Avg POC ULK2 (ULK2): 89 POC | Avg POC p38alpha (p38alpha): 91.5 POC | Avg POC p38delta (p38delta): 81 POC | Avg POC p70S6K (p70S6K): 111 POC
Structure (SMILES): COCc1ccc(C2CCC2)c(CNC(=O)Nc2c(C)c(-c3cnc(C)nc3)nn2-c2ccccc2)c1 [Example 10, 1-(2-cyclobutyl-5-(methoxymethyl)benzyl)-3-(4-methyl-3-(2-methylpyrimidin-5-yl)-1-phenyl-1H-pyrazol-5-yl)urea]

Avg POC ALK4 (ALK4): 106 POC | Avg POC BLK_m (BLK_m): 119 POC | Avg POC CAMK1 (CAMK1): 111.5 POC | Avg POC CAMK2d (CAMK2d): 118 POC | Avg POC CK1gamma2 (CK1gamma2): 113.5 POC | Avg POC CK1gamma3 (CK1gamma3): 119.5 POC | Avg POC DAPK2 (DAPK2): 109.5 POC | Avg POC EphB4 (EphB4): 128 POC | Avg POC ErbB4 (ErbB4): 130.5 POC | Avg POC Fer (Fer): 90.5 POC | Avg POC HIPK2 (HIPK2): 95 POC | Avg POC HIPK3 (HIPK3): 102 POC | Avg POC Haspin (Haspin): 109 POC | Avg POC IRR (IRR): 96.5 POC | Avg POC JAK2 (JAK2): 130 POC | Avg POC LOK (LOK): 93.5 POC | Avg POC Lck (Lck): 93 POC | Avg POC MAPKAP-K2 (MAPKAP-K2): 146 POC | Avg POC MEK1 (MEK1): 117 POC | Avg POC MKK6 (MKK6): 143 POC | Avg POC MRCKalpha (MRCKalpha): 147 POC | Avg POC MRCKbeta (MRCKbeta): 116.5 POC | Avg POC MSK2 (MSK2): 207.5 POC | Avg POC MYLK (MYLK): 100.5 POC | Avg POC PKCbetaII (PKCbetaII): 96 POC | Avg POC PRKG1alpha (PRKG1alpha): 122.5 POC | Avg POC PRKG1beta (PRKG1beta): 121 POC | Avg POC Pim-1 (Pim-1): 138 POC | Avg POC Pim-2 (Pim-2): 146 POC | Avg POC Plk2 (Plk2): 102 POC | Avg POC ROCK-I (ROCK-I): 120.5 POC | Avg POC Rsk1 (Rsk1): 119.5 POC | Avg POC Rsk3 (Rsk3): 103 POC | Avg POC SGK2 (SGK2): 208 POC | Avg POC TAO2 (TAO2): 92.5 POC | Avg POC TEC Activated (TEC Activated): 138.5 POC | Avg POC Txk (Txk): 156.5 POC | Avg POC ULK2 (ULK2): 98.5 POC | Avg POC p38alpha (p38alpha): 88.5 POC | Avg POC p38delta (p38delta): 85 POC | Avg POC p70S6K (p70S6K): 377 POC
Structure (SMILES): COCc1ccc(C(F)(F)F)c(CNC(=O)Nc2c(C)c(-c3cnn(C)c3)nn2-c2ccccc2)c1 [Example 33, 1-(1′,4-dimethyl-1-phenyl-1H,1′H-[3,4′-bipyrazol]-5-yl)-3-(5-(methoxymethyl)-2-(trifluoromethyl)benzyl)urea]

Source: US9969694B2, “N-(arylalkyl)-N′-pyrazolyl-urea, thiourea, guanidine and cyanoguanidine compounds as TrkA kinase inhibitors” (Array BioPharma Inc., priority 2012, dated 2018)
